Patent US10308636B2, “Aromatic heterocyclic compound” (MITSUBISHI TANABE PHARMA CORPORATION, priority 2012, dated 2019)

Assays:
[1] = tested on: Male KK-Ay mice; assay: Body weight gain-suppressing, hypoglycemic and plasma insulin-decreasing action in KK-Ay mouse; format: in vivo; details: 30 mg/kg/day oral once a day for 2 weeks, KK-Ay mice on high fat diet; for Hypoglycemic action (30 mg/kg/day): blood sugar after overnight fast; for Hypoglycemic action (30 mg/kg/day) / Plasma insulin-decreasing action (30 mg/kg/day): relative to solvent control; for Plasma insulin-decreasing action (30 mg/kg/day): plasma insulin after overnight fast; for Body weight gain-suppressing action (30 mg/kg/day): relative to body weight gain of solvent control as 100%
Description: Male KK-Ay mice, 8 weeks old, were given high fat diet (Oriental Yeast, 60 cal % fat), the test compound was suspended in 0.2% carboxymethylcellulose solution and the suspension was orally administered once a day. After the oral administration was repeated for 2 weeks, the body weight gain-suppressing ratio of the test compound was calculated, relative to the body weight gain of the solvent control group during the test period as 100%. After the final administration, the animals were fasted overnight, and blood was sampled through the caudal vein. The blood sugar and the insulin in the plasma were determined by using Glucose C II-Test Wako (Wako Pure Chemical) and Mouse Insulin Measurement Kit (Morinaga Institute of Biological Science), respectively.

[2] = tested on: Male ICR mice; assay: Triglyceride (TG) elevation-suppressing action in plasma by lipid administration; format: in vivo, mouse; details: 5 mg/kg oral, fasted ICR mice, lipid (Intralipos 20%, 10 mL/kg) 30 minutes after compound, plasma TG 2 hours after lipid, relative to solvent control
Description: Male ICR mice, 6 to 9 weeks old, were fasted overnight, and a test compound was suspended in 0.2% carboxymethylcellulose solution and the suspension was orally administered. After 30 minutes, lipid (Intralipos, 20%, Otsuka Pharmaceutical, 10 mL/kg) was orally administered. Blood was sampled through the caudal vein immediately before and 2 hours after the administration of the lipid to obtain plasma. TG in the plasma was determined by using Triglyceride E-Test Wako (Wako Pure Chemical), and the elevation value of TG in the plasma by the lipid administration was calculated. By using the plasma TG elevation value in the solvent control group as the control, the plasma TG elevation-suppressing ratio was calculated in the test compound administrating group.

[3] = tested on: Male C57BL/6J mice; assay: Food intake-suppressing action (high fat diet); format: in vivo, mouse; details: 5 mg/kg oral, fasted C57BL/6J mice, food intake for 4 hours, relative to solvent control
Description: Male C57BL/6J mice, 7 to 10 weeks old, were fasted overnight, and a test compound was suspended in 0.2% carboxymethylcellulose solution and the suspension was orally administered. Immediately, the animals were given high fat diet (Oriental Yeast, 60 cal % fat) and allowed to take freely. The food intake for 4 hours was determined, and the decrease ratio of the food intake (food intake-suppressing ratio) was calculated in the test compound administrating group, relative to the food intake in the solvent control group as a control.

Structure (SMILES) | Hypoglycemic action (30 mg/kg/day) [1] [%] | Plasma insulin-decreasing action (30 mg/kg/day) [1] [%] | Body weight gain-suppressing action (30 mg/kg/day) [1] [%] | Plasma TG elevation suppressing ratio (5 mg/kg) [2] [%] | Food intake-suppressing ratio (5 mg/kg) [3] [%]
NC(=O)c1ccc(Br)cc1F [Example 78] | 57 | 69 | 56 | – | –
O=C(O)Cc1ccc(C2CCN(c3ccc(-c4nc(C(F)(F)F)c[nH]4)cn3)CC2)cc1 [Example 43-2] | – | – | – | 66 | 82
COC(=O)C(C)(C)COc1ccc(-c2ccc(-c3nc(OCC(F)(F)C(F)(F)F)n(COCC[Si](C)(C)C)n3)cc2)cn1 [Example 74] | 32 | 29 | 41 | – | –
Cc1cc(OCC(C)(C)C(=O)O)ncc1-c1ccc(-c2nc(C#N)c[nH]2)cc1 [Example 32-2] | – | – | – | 63 | 65
CC(C)(COc1ccc(-c2ccc(-c3ncc(CCOc4ccccc4)[nH]3)cn2)cc1)C(=O)O [Example 1-58] | – | – | – | 66 | 68
CCOc1nc(-c2ccc(-c3ccc(O[C@H]4CC[C@@H](C(=O)OCC)CC4)nc3)cc2)nn1COCC[Si](C)(C)C [Example 67] | 47 | 14 | 43 | – | –
Nc1nnc(-c2ccc(Br)cc2)o1 [Example 61] | 44 | 50 | 36 | – | –
COc1ccc(-c2n[nH]c(-c3ccc(-c4ccc(OCC(C)(C)C(=O)O)nc4)cc3)n2)cc1 [Example 110] | – | – | – | 73.0 | 68
COC(=O)C(C)(C)COc1ccc(-c2ccc(-c3nc(-c4noc(C)n4)cn3COCC[Si](C)(C)C)cn2)cc1 [Example 7] | 42 | 34 | 34 | – | –
CC(C)(COc1ccc(-c2ccc(-c3nc(COCc4ccccc4)c[nH]3)cn2)cc1)C(=O)O [Example 10] | 37 | 40 | 32 | – | –
CCOCc1nc(-c2ccc(-c3ccc(OCC(C)(C)C(=O)O)cc3)nc2)[nH]c1Cl [Example 31-2] | 55 | 45 | 41 | 74 | 74
